Data taken from US5849691A, “Peptidomimetic inhibitors of cathepsin D and plasmepsins I and II” (The United States of America as represented by the …, priority 1996, dated 1998).
Numbered stars: 1 amine (or outer) side, 2 acyl side, 3 side chain; on linkers, the order of the positions; unused ones are H or OH. Bridge positions count the residues as written; N and C are the ends. Square brackets hold non-standard residues; d marks the D form. Peptide text beside a SMILES is read from it. * marks the point of attachment. Ahppa(3S,4S) = O=C(C[C@H](O)[C@H](Cc1ccccc1)N[*:1])[*:2]; Butanoyl(3,3-Me2) = CC(C)(C)CC(=O)*; Isopropoxycarbonyl = CC(C)OC(=O)*; CH2CH2 = C(C[*:2])[*:1]

Biological target: plasmepsin I (PMI) (Plasmodium falciparum, UniProt P39898)
Assay: biochemical
Conditions: not given

Sequence of plasmepsin I (PMI) (P39898 124-452): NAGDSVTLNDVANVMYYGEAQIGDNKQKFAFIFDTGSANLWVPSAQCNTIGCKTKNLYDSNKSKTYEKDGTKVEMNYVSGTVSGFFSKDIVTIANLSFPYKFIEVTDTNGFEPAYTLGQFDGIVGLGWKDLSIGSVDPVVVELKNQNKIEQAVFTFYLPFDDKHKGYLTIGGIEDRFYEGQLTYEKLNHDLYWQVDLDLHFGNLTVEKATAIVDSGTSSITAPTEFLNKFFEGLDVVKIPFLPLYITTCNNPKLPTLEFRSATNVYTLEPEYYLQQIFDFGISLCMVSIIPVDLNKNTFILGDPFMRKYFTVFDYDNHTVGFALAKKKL

SMILES	Ki [nM]
CC(C)C[C@H](NC(=O)[C@@H](NC(=O)C[C@H](O)[C@@H]1CCCCNC(=O)CC[C@H](NC(=O)CC(C)(C)C)C(=O)N[C@@H](C(C)C)C(=O)N1)C(C)C)C(=O)NCC(N)=O [drawing 40]	22
CC(C)C[C@H](NC(=O)[C@H](C)NC(=O)C[C@H](O)[C@H](Cc1ccccc1)NC(=O)[C@@H](NC(=O)c1ccccn1)C(C)C)C(N)=O [drawing 42]	16

Biological target: cathepsin D (Homo sapiens, UniProt P07339)
Assay: cathepsin D inhibition assay with fluorogenic substrate (tight-binding kinetics)
Type: biochemical
Conditions: not given
Procedure: (§1) Typically, 485 μl of 50 mM Gly-HC1 buffer, pH 3.5 (in the case of cathepsin D), or 100 mM sodium acetate buffer, pH 5.0 (in the case of plasmepsin 2), was mixed with 5 μl of DMSO and 5 μl of titrated protease (final concentration 0.2-10 nM) and incubated 3 min at 37° C. The reaction was initiated by the addition of 5 μl of substrate stock solution in DMSO. Increase in fluorescence intensity at the emission maximum of 487 nm (excitation wavelength was 349 nm) was monitored as a function of time using an Aminco Bowman-2 luminescence spectrometer (SLM Instruments, Inc.).
(§2) The initial rate of hydrolysis was calculated by a second degree polynomial fit using SLM AB2 2.0 operating software. Kinetic parameters were determined by nonlinear regression fitting of initial rate versus substrate concentration data to the Michaelis-Menten equation using the program Enzfitter version 1.05 (Leatherbarrow, R. J. 1987. Enzfitter, a program for non-linear regression analysis. Elsevier Scientific, New York).
For inhibition studies inhibitors were prepared as stock solutions at different concentrations in DMSO. In a typical experiment 485 μl of the appropriate buffer was mixed with 5 μl of inhibitor stock solution and 5 μ of titrated protease (final concentration 0.2-10 nM) and preincubated 3 min at 37° C. The reaction was initiated by the addition of 5 μl of substrate stock solution in DMSO. For data analysis the mathematical model for tight-binding inhibitors (Williams, J. W., and Morrison, J. F. Methods Enzymol. 63:437 (1979)) was used. The data were fitted by nonlinear regression analysis to the equation
V=V0 /2Et ({[K1 (1+S/Km)+It -Et ]^2
+4Ki (1+S/Km)Et }^1/2 -[Ki (1+S/Km)+It

Sequence of cathepsin D (P07339 65-412): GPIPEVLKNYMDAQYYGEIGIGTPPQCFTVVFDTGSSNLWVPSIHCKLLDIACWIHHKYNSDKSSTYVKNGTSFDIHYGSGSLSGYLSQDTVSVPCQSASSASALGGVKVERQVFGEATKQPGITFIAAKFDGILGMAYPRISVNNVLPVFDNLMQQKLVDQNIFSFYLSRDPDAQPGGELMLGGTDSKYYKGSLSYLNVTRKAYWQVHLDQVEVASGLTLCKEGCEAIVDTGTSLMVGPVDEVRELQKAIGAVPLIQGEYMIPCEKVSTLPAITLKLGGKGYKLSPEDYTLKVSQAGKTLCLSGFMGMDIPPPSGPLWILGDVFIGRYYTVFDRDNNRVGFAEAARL

SMILES	Ki [nM]	IC50 [nM]
CCCCCNC(=O)[C@@H](NC(=O)C[C@H](O)[C@H](Cc1ccccc1)NC(=O)CCCC)C(C)C	400	
CC(C)C[C@H](NC(=O)[C@H](C)NC(=O)C[C@H](O)[C@H](Cc1ccccc1)NC(=O)[C@@H](NC(=O)CN(C)C)C(C)C)C(N)=O		1000
CC(C)C[C@H](NC(=O)[C@H](C)NC(=O)C[C@H](O)[C@H](Cc1ccccc1)NC(=O)[C@@H](NC(=O)Cc1ccccn1)C(C)C)C(N)=O	20	
CC(C)C[C@H](NC(=O)[C@H](C)NC(=O)C[C@H](O)[C@H](Cc1ccccc1)NC(=O)[C@@H](NC(=O)OC(C)C)C(C)C)C(N)=O		20
CC(C)[C@@H]1NC(=O)C[C@H](O)[C@H](Cc2ccccc2)NC(=O)[C@@H](NC(=O)[C@@H](NC(=O)CC(C)(C)C)C(C)C)CSCCCSC[C@@H](C(=O)NCC(N)=O)NC1=O	1.5	
CC(C)[C@@H]1NC(=O)C[C@H](O)[C@H](Cc2ccccc2)NC(=O)[C@@H](NC(=O)[C@@H](NC(=O)CC(C)(C)C)C(C)C)CSCCCCSC[C@@H](C(=O)NCC(N)=O)NC1=O	0.1	
CC(C)C[C@H](NC(=O)[C@@H](NC(=O)C[C@H](O)[C@@H]1CCCCNC(=O)C[C@H](NC(=O)CC(C)(C)C)C(=O)N[C@@H](C(C)C)C(=O)N1)C(C)C)C(=O)NCC(N)=O	2.5	
CC(C)C[C@H](NC(=O)[C@H](C)NC(=O)C[C@H](O)[C@H](Cc1ccccc1)NC(=O)[C@@H](NC(=O)[C@@H](NC(=O)OC(C)C)C(C)C)C(C)C)C(N)=O (Isopropoxycarbonyl-VV[Ahppa(3S,4S)]AL-NH2)	0.24	
CC(C)[C@@H]1NC(=O)C[C@H](O)[C@H](Cc2ccccc2)NC(=O)[C@@H](NC(=O)[C@@H](NC(=O)CC(C)(C)C)C(C)C)CSSC[C@@H](C(=O)NCC(N)=O)NC1=O ({Butanoyl(3,3-Me2)}-VC[Ahppa(3S,4S)]VCG-NH2; disulfide 2-5)	150	
CC(C)[C@@H]1NC(=O)C[C@H](O)[C@H](Cc2ccccc2)NC(=O)[C@@H](NC(=O)[C@@H](NC(=O)CC(C)(C)C)C(C)C)CSCCSC[C@@H](C(=O)NCC(N)=O)NC1=O ({Butanoyl(3,3-Me2)}-VC[Ahppa(3S,4S)]VCG-NH2; linker 2-5 via CH2CH2)	1.9	
CC(C)[C@@H]1NC(=O)C[C@H](O)[C@H](Cc2ccccc2)NC(=O)[C@@H](NC(=O)[C@@H](NC(=O)CC(C)(C)C)C(C)C)CCC(=O)NCCCC[C@@H](C(=O)NCC(N)=O)NC1=O ({Butanoyl(3,3-Me2)}-VE[Ahppa(3S,4S)]VKG-NH2; lactam 2-5)	2.3	
CC(C)[C@@H]1NC(=O)C[C@H](O)[C@H](Cc2ccccc2)NC(=O)[C@@H](NC(=O)[C@@H](NC(=O)CC(C)(C)C)C(C)C)CCCCNC(=O)CC[C@@H](C(=O)NCC(N)=O)NC1=O ({Butanoyl(3,3-Me2)}-VK[Ahppa(3S,4S)]VEG-NH2; lactam 2-5)	1.4	
CC(C)C[C@H](NC(=O)[C@@H](NC(=O)C[C@H](O)[C@H](Cc1ccccc1)NC(=O)[C@H](CC(=O)O)NC(=O)[C@@H](NC(=O)CC(C)(C)C)C(C)C)C(C)C)C(=O)NCC(N)=O [(10), Tha--Val--Asp--Pst--Val--Leu--Gly--NH2] ({Butanoyl(3,3-Me2)}-VD[Ahppa(3S,4S)]VLG-NH2)	2.1	
CC(C)C[C@H](NC(=O)[C@@H](NC(=O)C[C@H](O)[C@@H]1CCCCNC(=O)CC[C@H](NC(=O)CC(C)(C)C)C(=O)N[C@@H](C(C)C)C(=O)N1)C(C)C)C(=O)NCC(N)=O [drawing 29]	0.26	

Same assay, conditions: target named only in b168/b175 (cathepsin D), elsewhere implied; read-out: Ki

SMILES	Ki [nM]
CC(C)C[C@H](NC(=O)[C@H](C)NC(=O)C[C@H](O)[C@H](Cc1ccccc1)NC(=O)[C@@H](NC(=O)c1ccccn1)C(C)C)C(N)=O [drawing 15]	21

Biological target: plasmepsin II (PMII) (Plasmodium falciparum, UniProt P46925)
Assay: biochemical
Conditions: not given
Procedure: as §1, §2
For inhibition studies inhibitors were prepared as stock solutions at different concentrations in DMSO. In a typical experiment 485 μl of the appropriate buffer was mixed with 5 μl of inhibitor stock solution and 5 μ of titrated protease (final concentration 0.2-10 nM) and preincubated 3 min at 37° C. The reaction was initiated by the addition of 5 μl of substrate stock solution in DMSO. […]

Sequence of plasmepsin II (PMII) (P46925 125-453): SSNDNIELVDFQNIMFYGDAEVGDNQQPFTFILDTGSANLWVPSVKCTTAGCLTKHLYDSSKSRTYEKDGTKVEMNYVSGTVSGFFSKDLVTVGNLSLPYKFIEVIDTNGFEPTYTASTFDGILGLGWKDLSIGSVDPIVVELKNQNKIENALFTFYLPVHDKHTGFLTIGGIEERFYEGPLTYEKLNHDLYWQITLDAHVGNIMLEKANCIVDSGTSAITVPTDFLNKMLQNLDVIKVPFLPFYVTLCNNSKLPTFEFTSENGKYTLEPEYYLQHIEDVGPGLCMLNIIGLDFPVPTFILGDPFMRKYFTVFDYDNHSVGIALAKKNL

SMILES	Ki [nM]
CC(C)C[C@H](NC(=O)[C@@H](NC(=O)C[C@H](O)[C@@H]1CCCCNC(=O)CC[C@H](NC(=O)CC(C)(C)C)C(=O)N[C@@H](C(C)C)C(=O)N1)C(C)C)C(=O)NCC(N)=O [drawing 40]	0.2
CC(C)C[C@H](NC(=O)[C@H](C)NC(=O)C[C@H](O)[C@H](Cc1ccccc1)NC(=O)[C@@H](NC(=O)c1ccccn1)C(C)C)C(N)=O [drawing 42]	0.9
